Measured values as given in patent US6706740B2, “Fungicidal heterocyclic aromatic amides and their compositions, methods of use and preparation” (Dow AgroSciences LLC, priority 1999, dated 2004).

test system: Magnaporthe grisea (Pyricularia oryzae—PYRIOR); assay: microbe, parasite or virus in culture; type: cell-based; settings: Pyricularia oryzae, read-out: PYRIOR in vitro Growth Inhibition

| SMILES | inhibition at 25 ppm [%] |
| --- | --- |
| COc1ccnc(C(=O)Nc2ccccc2Oc2ccccc2C#N)c1O [Compound 418] | < 80 |
| COc1ccnc(C(=O)NC2CCC(Sc3ccccc3)CC2)c1O (stereo not drawn) [Compound 275] | < 80 |
| COc1ccc(O)c(C(=O)NC2COC(=O)[C@H](Cc3ccccc3)[C@@H](OC(=O)C(C)C)[C@H](C)OC2=O)n1 (stereo partly drawn) [Compound 481] | < 80 |

test system: Rhizoctonia solani (RHIZSO); assay: microbe, parasite or virus in culture; type: cell-based; settings: Rhizoctonia solani, read-out: RHIZSO in vitro Growth Inhibition

| SMILES | inhibition at 25 ppm [%] |
| --- | --- |
| COc1ccnc(C(=O)Nc2ccccc2Oc2ccccc2C#N)c1O [Compound 418] | < 80 |
| COc1ccnc(C(=O)NC2CCC(Sc3ccccc3)CC2)c1O (stereo not drawn) [Compound 275] | > 80 |
| COc1ccc(O)c(C(=O)NC2COC(=O)[C@H](Cc3ccccc3)[C@@H](OC(=O)C(C)C)[C@H](C)OC2=O)n1 (stereo partly drawn) [Compound 481] | < 80 |

test system: Mycosphaerella graminicola (Septoria tritici—SEPTTR); assay: In vitro fungal growth inhibition, Mycosphaerella graminicola (SEPTTR); type: cell-based; settings: Zymoseptoria tritici; 25 ppm in growth medium; read-out: SEPTTR in vitro Growth Inhibition

| SMILES | inhibition at 25 ppm [%] |
| --- | --- |
| COc1ccnc(C(=O)Nc2ccccc2Oc2ccccc2C#N)c1O [Compound 418] | < 80 |
| COc1ccnc(C(=O)NC2CCC(Sc3ccccc3)CC2)c1O (stereo not drawn) [Compound 275] | > 80 |

same assay, conditions: Zymoseptoria tritici; 25 ppm in the growth medium; read-out: SEPTTR in vitro Growth Inhibition

| SMILES | inhibition at 25 ppm [%] |
| --- | --- |
| COc1ccc(O)c(C(=O)NC2COC(=O)[C@H](Cc3ccccc3)[C@@H](OC(=O)C(C)C)[C@H](C)OC2=O)n1 (stereo partly drawn) [Compound 481] | < 80 |

test system: Stagonospora nodorum (Leptosphaeria nodorum—LEPTNO); assay: In vitro fungal growth inhibition, Stagonospora nodorum (LEPTNO); type: cell-based; settings: Leptosphaeria; 25 ppm in growth medium; read-out: LEPTNO in vitro Growth Inhibition

| SMILES | inhibition at 25 ppm [%] |
| --- | --- |
| COc1ccnc(C(=O)Nc2ccccc2Oc2ccccc2C#N)c1O [Compound 418] | < 80 |
| COc1ccnc(C(=O)NC2CCC(Sc3ccccc3)CC2)c1O (stereo not drawn) [Compound 275] | > 80 |

same assay, conditions: Leptosphaeria; 25 ppm in the growth medium; read-out: LEPTNO in vitro Growth Inhibition

| SMILES | inhibition at 25 ppm [%] |
| --- | --- |
| COc1ccc(O)c(C(=O)NC2COC(=O)[C@H](Cc3ccccc3)[C@@H](OC(=O)C(C)C)[C@H](C)OC2=O)n1 (stereo partly drawn) [Compound 481] | < 80 |

test system: Ustilago maydis (USTIMA); assay: microbe, parasite or virus in culture; type: cell-based; settings: Mycosarcoma maydis, read-out: USTIMA in vitro Growth Inhibition

| SMILES | inhibition at 25 ppm [%] |
| --- | --- |
| COc1ccnc(C(=O)Nc2ccccc2Oc2ccccc2C#N)c1O [Compound 418] | < 80 |
| COc1ccnc(C(=O)NC2CCC(Sc3ccccc3)CC2)c1O (stereo not drawn) [Compound 275] | < 80 |
| COc1ccc(O)c(C(=O)NC2COC(=O)[C@H](Cc3ccccc3)[C@@H](OC(=O)C(C)C)[C@H](C)OC2=O)n1 (stereo partly drawn) [Compound 481] | < 80 |

test system: Phytophthora infestans (PHYTIN); assay: microbe, parasite or virus in culture; type: cell-based; settings: Phytophthora infestans, read-out: PHYTIN in vitro Growth Inhibition

| SMILES | inhibition at 25 ppm [%] |
| --- | --- |
| COc1ccnc(C(=O)Nc2ccccc2Oc2ccccc2C#N)c1O [Compound 418] | < 80 |
| COc1ccnc(C(=O)NC2CCC(Sc3ccccc3)CC2)c1O (stereo not drawn) [Compound 275] | < 80 |
| COc1ccc(O)c(C(=O)NC2COC(=O)[C@H](Cc3ccccc3)[C@@H](OC(=O)C(C)C)[C@H](C)OC2=O)n1 (stereo partly drawn) [Compound 481] | < 80 |

test system: Phytophthora infestans—PHYTIN; assay: whole plant or invertebrate; type: in vivo; settings: Phytophthora, in Solanum lycopersicum, 24 h, read-out: PHYTIN in vivo 1 Day Protectant

| SMILES | pest or weed control at 100 ppm [%] |
| --- | --- |
| COc1ccnc(C(=O)Nc2ccccc2Oc2ccccc2C#N)c1O [Compound 418] | < 25 |
| COc1ccnc(C(=O)NC2CCC(Sc3ccccc3)CC2)c1O (stereo not drawn) [Compound 275] | < 25 |
| COc1ccc(O)c(C(=O)NC2COC(=O)[C@H](Cc3ccccc3)[C@@H](OC(=O)C(C)C)[C@H](C)OC2=O)n1 (stereo partly drawn) [Compound 481] | < 25 |

test system: Puccinia recondita—PUCCRT; assay: Brown Rust of Wheat, in vivo whole plant, 24 Hour Protectant; settings: Puccinia; 100 ppm spray, 24 hour protectant, wheat; control of fungal infection vs untreated plants; read-out: PUCCRT in vivo 1 Day Protectant

| SMILES | pest or weed control at 100 ppm [%] |
| --- | --- |
| COc1ccnc(C(=O)NC2CCC(Sc3ccccc3)CC2)c1O (stereo not drawn) [Compound 275] | < 25 |

same assay, conditions: Puccinia; 100 ppm spray, wheat, 24 hour protectant; control of fungal infection vs untreated plants; read-out: PUCCRT in vivo 1 Day Protectant

| SMILES | pest or weed control at 100 ppm [%] |
| --- | --- |
| COc1ccnc(C(=O)Nc2ccccc2Oc2ccccc2C#N)c1O [Compound 418] | 25 to 74 |

same assay, conditions: Puccinia; wheat plants sprayed at 100 ppm, inoculated after 24 hours; control of fungal infection vs untreated plants; read-out: PUCCRT in vivo 1 Day Protectant

| SMILES | pest or weed control at 100 ppm [%] |
| --- | --- |
| COc1ccc(O)c(C(=O)NC2COC(=O)[C@H](Cc3ccccc3)[C@@H](OC(=O)C(C)C)[C@H](C)OC2=O)n1 (stereo partly drawn) [Compound 481] | < 25 |

test system: Erysiphe graminis—ERYSGT; assay: Powdery Mildew of Wheat, in vivo whole plant, 24 Hour Protectant; settings: Erysiphe; 100 ppm spray, 24 hour protectant, wheat; control of fungal infection vs untreated plants; read-out: ERYSGT in vivo 1 Day Protectant

| SMILES | pest or weed control at 100 ppm [%] |
| --- | --- |
| COc1ccnc(C(=O)NC2CCC(Sc3ccccc3)CC2)c1O (stereo not drawn) [Compound 275] | < 25 |

same assay, conditions: Erysiphe; 100 ppm spray, wheat, 24 hour protectant; control of fungal infection vs untreated plants; read-out: ERYSGT in vivo 1 Day Protectant

| SMILES | pest or weed control at 100 ppm [%] |
| --- | --- |
| COc1ccnc(C(=O)Nc2ccccc2Oc2ccccc2C#N)c1O [Compound 418] | < 25 |

same assay, conditions: Erysiphe; wheat plants sprayed at 100 ppm, inoculated after 24 hours; control of fungal infection vs untreated plants; read-out: ERYSGT in vivo 1 Day Protectant

| SMILES | pest or weed control at 100 ppm [%] |
| --- | --- |
| COc1ccc(O)c(C(=O)NC2COC(=O)[C@H](Cc3ccccc3)[C@@H](OC(=O)C(C)C)[C@H](C)OC2=O)n1 (stereo partly drawn) [Compound 481] | < 25 |

test system: Septoria tritici—SEPTTR; assay: Leaf Blotch of Wheat, in vivo whole plant, 24 Hour Protectant; settings: Zymoseptoria tritici, 24 h, 100 ppm spray, 24 hour protectant, wheat; control of fungal infection vs untreated plants; read-out: SEPTTR in vivo 1 Day Protectant

| SMILES | pest or weed control at 100 ppm [%] |
| --- | --- |
| COc1ccnc(C(=O)NC2CCC(Sc3ccccc3)CC2)c1O (stereo not drawn) [Compound 275] | 25 to 74 |

same assay, conditions: Zymoseptoria tritici, 24 h, 100 ppm spray, wheat, 24 hour protectant; control of fungal infection vs untreated plants; read-out: SEPTTR in vivo 1 Day Protectant

| SMILES | pest or weed control at 100 ppm [%] |
| --- | --- |
| COc1ccnc(C(=O)Nc2ccccc2Oc2ccccc2C#N)c1O [Compound 418] | < 25 |

same assay, conditions: Zymoseptoria tritici, 24 h, wheat plants sprayed at 100 ppm, inoculated after 24 hours; control of fungal infection vs untreated plants; read-out: SEPTTR in vivo 1 Day Protectant

| SMILES | pest or weed control at 100 ppm [%] |
| --- | --- |
| COc1ccc(O)c(C(=O)NC2COC(=O)[C@H](Cc3ccccc3)[C@@H](OC(=O)C(C)C)[C@H](C)OC2=O)n1 (stereo partly drawn) [Compound 481] | 25 to 74 |

test system: Leptosphaeria nodorum—LEPTNO; assay: Glume Blotch of Wheat, in vivo whole plant, 24 Hour Protectant; settings: Leptosphaeria; 100 ppm spray, 24 hour protectant, wheat; control of fungal infection vs untreated plants; read-out: LEPTNO in vivo 1 Day Protectant

| SMILES | pest or weed control at 100 ppm [%] |
| --- | --- |
| COc1ccnc(C(=O)NC2CCC(Sc3ccccc3)CC2)c1O (stereo not drawn) [Compound 275] | 25 to 74 |

same assay, conditions: Leptosphaeria; 100 ppm spray, wheat, 24 hour protectant; control of fungal infection vs untreated plants; read-out: LEPTNO in vivo 1 Day Protectant

| SMILES | pest or weed control at 100 ppm [%] |
| --- | --- |
| COc1ccnc(C(=O)Nc2ccccc2Oc2ccccc2C#N)c1O [Compound 418] | < 25 |

same assay, conditions: Leptosphaeria; wheat plants sprayed at 100 ppm, inoculated after 24 hours; control of fungal infection vs untreated plants; read-out: LEPTNO in vivo 1 Day Protectant

| SMILES | pest or weed control at 100 ppm [%] |
| --- | --- |
| COc1ccc(O)c(C(=O)NC2COC(=O)[C@H](Cc3ccccc3)[C@@H](OC(=O)C(C)C)[C@H](C)OC2=O)n1 (stereo partly drawn) [Compound 481] | 25 to 74 |
